From paper PMC10669182, “Pyrazolo-triazolo-pyrimidine Scaffold as a Molecular Passepartout for the Pan-Recognition of Human Adenosine Receptors” (Biomolecules, 2023)
Like-named read-outs stand apart in the source and are kept apart here.

Key:
[1] = biological target: human A2A adenosine receptor; conditions: [3H]NECA, geometric mean with 95% confidence limits, read-out: hA2A (Ki nM), cited from earlier work
hA2B adenosine receptor = biological target: hA2B adenosine receptor; parameters: method as in PMID 19501513, PMID 19908874; conditions: NECA (5 μM)-stimulated adenylyl cyclase, hA2B-CHO membranes; geometric mean with 95% confidence limits; cited from earlier work
[2] = biological target: human A1 adenosine receptor; conditions: [3H]CCPA, geometric mean with 95% confidence limits, read-out: hA1 (Ki nM), cited from earlier work
[3] = biological target: human A3 adenosine receptor; conditions: [3H]NECA, geometric mean with 95% confidence limits, read-out: hA3 (Ki nM), cited from earlier work
[4] = biological target: T1, human A2B adenosine receptor (Homo sapiens, UniProt P29275); assay: Radioligand binding, displacement of [3H]ZM241385 at human A2B receptors expressed in CHO cells; conditions: 10 nM [3H]ZM241385, CHO cell membranes, 3 h room temperature; geometric mean with 95% confidence limits; reported for the first time; read-out: hA2B (Ki nM)
T1 construct: expressed in transfected cells; host or cells: CHO cells, stably transfected; membrane preparation
T1 sequence (P29275 1-332): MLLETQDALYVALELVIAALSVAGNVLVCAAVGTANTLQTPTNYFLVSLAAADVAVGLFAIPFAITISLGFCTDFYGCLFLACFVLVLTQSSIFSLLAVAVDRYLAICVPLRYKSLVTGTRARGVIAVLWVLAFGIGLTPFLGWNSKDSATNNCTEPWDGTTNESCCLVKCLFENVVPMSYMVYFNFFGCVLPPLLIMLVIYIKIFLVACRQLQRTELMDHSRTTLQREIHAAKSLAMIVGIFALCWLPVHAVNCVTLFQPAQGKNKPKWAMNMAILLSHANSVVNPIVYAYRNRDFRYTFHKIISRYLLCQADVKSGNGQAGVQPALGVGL
Method: All pharmacological methods followed the procedures described earlier. In brief, membranes for radioligand binding were prepared from CHO cells stably transfected with human adenosine receptor subtype (obtained as reported in reference) in a two-step procedure. In a first low-speed step (1000× g), cell fragments and nuclei were removed. The crude membrane fraction was sedimented from the supernatant at 100,000× g. The membrane pellet was resuspended in the buffer used for the respective binding experiments, frozen in liquid nitrogen, and stored at −80 °C.
Compounds were dissolved in DMSO and then diluted to the desired concentration in buffer, and at least 6 different concentrations were tested. DMSO in the final solution never exceeded 2%. For radioligand binding at A1 adenosine receptors, 1 nM [^3H]CCPA was used, whereas 30 and 10 nM [^3H]NECA were used for A2A and A3 receptors, respectively. Non-specific binding of [^3H]CCPA was determined in the presence of 1 mM theophylline; in the case of [^3H]NECA, 100 µM R-PIA was used. For radioligand binding assay of compounds 1–4 at A2B receptors, membranes (20 µg membrane protein) were incubated in a total volume of 200 µL (assay buffer: Tris/HCl pH 7.4, 10 mM MgCl2, 0.1% bovine serum albumin) with 10 nM [^3H]ZM241385. Non-specific binding of [^3H]ZM241385 was determined in the presence of 0.3 mM NECA. After 3 h at room temperature, samples were filtered and washed as described. Ki values from competition experiments were calculated with the program SCTFIT [32] and represented the mean of 3–6 replicates with 95% confidence limits.

[5] = CHO cell membranes, compounds 1-7

SMILES | Ki [1, 5] [nM] | IC50 (hA2B adenosine receptor) [nM] | Ki [2, 5] [nM] | Ki [3, 5] [nM] | Ki [4] [nM] | Ki ([1]; CHO cells, compounds 8-12) [nM] | Ki ([2]; CHO cells, compounds 8-12) [nM] | Ki ([3]; CHO cells, compounds 8-12) [nM]
Cn1cc2c(nc(NC(=O)C(c3ccccc3)c3ccccc3)n3nc(-c4ccco4)nc23)n1 [Compound 1] | 216 | 363 | 139 | 0.25 | 29.1 | – | – | –
CCn1cc2c(nc(NC(=O)C(c3ccccc3)c3ccccc3)n3nc(-c4ccco4)nc23)n1 [Compound 2] | 131 | 745 | 156 | 0.98 | 18.3 | – | – | –
CCCn1cc2c(nc(NC(=O)C(c3ccccc3)c3ccccc3)n3nc(-c4ccco4)nc23)n1 [Compound 3] | 46.5 | 491 | 80.2 | 0.93 | 13.3 | – | – | –
CCCCn1cc2c(nc(NC(=O)C(c3ccccc3)c3ccccc3)n3nc(-c4ccco4)nc23)n1 [Compound 4] | 114 | 780 | 129 | 1.2 | – | – | – | –
CC(C)CCn1cc2c(nc(NC(=O)C(c3ccccc3)c3ccccc3)n3nc(-c4ccco4)nc23)n1 [Compound 5] | 159 | > 10000 | 441 | 5.86 | – | – | – | –
CCn1cc2c(nc(NC(=O)Cc3cccs3)n3nc(-c4ccco4)nc23)n1 [Compound 6] | 15.9 | > 10000 | 148 | 196 | – | – | – | –
Cn1cc2c(nc(NC(=O)Cc3cccs3)n3nc(-c4ccco4)nc23)n1 [Compound 7] | 56 | > 10000 | 444 | 5.26 | – | – | – | –
Cn1cc2c(nc(N)n3nc(-c4ccco4)nc23)n1 [Compound 8] | – | – | – | – | – | 2.8 | 101 | 300
CCn1cc2c(nc(N)n3nc(-c4ccco4)nc23)n1 [Compound 9] | – | – | – | – | – | 1.95 | 5 | 331
CCCn1cc2c(nc(N)n3nc(-c4ccco4)nc23)n1 [Compound 10] | – | – | – | – | – | 2.51 | 10 | 408
CCCCn1cc2c(nc(N)n3nc(-c4ccco4)nc23)n1 [Compound 11] | – | – | – | – | – | 1.6 | 14 | 600
CC(C)CCn1cc2c(nc(N)n3nc(-c4ccco4)nc23)n1 [Compound 12] | – | – | – | – | – | – | 2 | 700
